In ChEMBL document CHEMBL1125055, “Tricyclic heteroaromatic systems. [1]benzopyranopyrrol-4-ones and [1]benzopyrano-1,2,3-triazol-4-ones as benzodiazepine receptor ligands. Synthesis and structure-activity relationships” (J Med Chem, 1990):

What follows are molecules tested against GABA-A receptor; anion channel (Bos taurus) (UniProt P10063+P08220+P20237+P08219+P10064+P22300) (assay: Percent inhibition of [3H]flunitrazepam binding to GABA-A Benzodiazepine receptor of bovine brain membranes at 34 uM).
Assay type: cell membranes
`Cc1cccc(-n2nnc3c(=O)oc4ccccc4c32)c1` gave an inhibition of 18%. In the case of `O=c1oc2ccccc2c2c1cc(-c1ccccc1)n2-c1ccccc1`, the inhibition is reported as 30%. `O=c1oc2ccccc2c2c1nnn2-c1ccccc1` showed an inhibition of 0%.

What follows are molecules tested against GABA-A receptor; anion channel (assay: Affinity to displace [3H]flunitrazepam from Benzodiazepine receptor in bovine brain membrane).
Assay type: cell membranes
`COc1ccc(-n2cc(-c3ccccc3)c3c(=O)oc4ccccc4c32)cc1` gave an IC50 of 62 nM. With `O=c1oc2ccccc2c2c1c(-c1ccccc1)cn2-c1ccc(Cl)cc1` the IC50 was 40 nM. For `Cc1cccc(-n2nc(-c3ccccc3)c3c(=O)n(C)c4ccccc4c32)c1`, the IC50 was 90 nM. Work on `O=c1oc2ccccc2c2c1c(-c1ccccc1)cn2-c1ccccc1` yielded an IC50 of 65 nM. `COC(=O)c1cc2c(cn1)[nH]c1ccccc12` [BETA-CCM] showed an IC50 of 16 nM. With `COc1cccc(-n2nc(C)c3c(O)nc4ccccc4c32)c1` the IC50 was 7500 nM. `Cc1ccc(-n2cc(-c3ccccc3)c3c(=O)oc4ccccc4c32)cc1` showed an IC50 of 172 nM. Work on `Cc1cc(C)cc(-n2cc(-c3ccccc3)c3c(=O)oc4ccccc4c32)c1` yielded an IC50 of 8.6 nM. `Cc1nn(-c2cccc(Br)c2)c2c1c(O)nc1ccccc12` gave an IC50 of 2500 nM. In the case of `CN1C(=O)CN=C(c2ccccc2)c2cc(Cl)ccc21` [DIAZEPAM], the IC50 is reported as 13 nM. `Cc1cccc(-n2cc(-c3ccccc3)c3c(=O)oc4ccccc4c32)c1` showed an IC50 of 25 nM. Work on `Cn1c(=O)c2c(-c3ccccc3)nn(-c3cccc(Cl)c3)c2c2ccccc21` yielded an IC50 of 70 nM. `COc1cccc(-n2cc(-c3ccccc3)c3c(=O)oc4ccccc4c32)c1` showed an IC50 of 48 nM. Molecule `O=c1oc2ccccc2c2c1c(-c1ccccc1)cn2-c1cccc(Cl)c1` has an IC50 of 10 nM.
